Organism: Rattus norvegicus
Experiment: DrugMatrix - Regimen: Daily Repeat
Type: toxicity, organism-based, Sprague-Dawley
Parameters: regimen Daily Repeat, gender Male, age 6-8 weeks
Details: in vivo, po, route oral GAVAGE, […]; for ABSOLUTE BASOPHIL / ABSOLUTE EOSINOPHIL / ABSOLUTE LYMPHOCYTE / ABSOLUTE MONOCYTE / ABSOLUTE SEGMENTED NEUTROPHIL / BASOPHIL / EOSINOPHIL / ERYTHROCYTE COUNT / HEMATOCRIT / HEMOGLOBIN / LEUKOCYTE COUNT / LYMPHOCYTE / MEAN CORPUSCULAR HEMOGLOBIN / MEAN CORPUSCULAR HEMOGLOBIN CONCENTRATION / MONOCYTE / NEUTROPHIL / NUCLEATED RED BLOOD CELLS / PLATELET COUNT: tissue Blood; for ALANINE AMINOTRANSFERASE / ALBUMIN / ALKALINE PHOSPHATASE / ASPARTATE AMINOTRANSFERASE / BLOOD UREA NITROGEN / CARBON DIOXIDE / CHLORIDE / CHOLESTEROL / CREATINE PHOSPHOKINASE / CREATININE / LACTATE DEHYDROGENASE / LIPASE / PHOSPHORUS / POTASSIUM / SODIUM / TOTAL BILIRUBIN / TOTAL PROTEIN / URIC ACID: tissue Plasma
[1] = 0 mg/kg, 72 h, dose level Control, time 3 day
[2] = 0 mg/kg, 120 h, dose level Control, time 5 day
[3] = 10 mg/kg, 72 h, dose level Low, time 3 day

CN(CCOc1ccc(CC2SC(=O)NC2=O)cc1)c1ccccn1 (stereo not drawn) [ROSIGLITAZONE]
ABSOLUTE BASOPHIL [1]: 0 CELLS/uL | ABSOLUTE EOSINOPHIL [1]: 14 CELLS/uL | ABSOLUTE LYMPHOCYTE [1]: 11144.67 CELLS/uL | ABSOLUTE MONOCYTE [1]: 22.5 CELLS/uL | ABSOLUTE SEGMENTED NEUTROPHIL [1]: 535.5 CELLS/uL | BASOPHIL [1]: 0% | EOSINOPHIL [1]: 0.17% | ERYTHROCYTE COUNT [1]: 5.08 x10E6/uL | HEMATOCRIT [1]: 32.32% | HEMOGLOBIN [1]: 12.87 G/DL | LEUKOCYTE COUNT [1]: 11.72 x10E3/uL | LYMPHOCYTE [1]: 94.67% | MEAN CORPUSCULAR HEMOGLOBIN [1]: 25.37 pg | MEAN CORPUSCULAR HEMOGLOBIN CONCENTRATION [1]: 39.85 G/DL | MONOCYTE [1]: 0.17% | NEUTROPHIL [1]: 5% | NUCLEATED RED BLOOD CELLS [1]: 0 /100WBC | PLATELET COUNT [1]: 1084 x10E3/uL | ALANINE AMINOTRANSFERASE [1]: 67.5 u/L | ALBUMIN [1]: 4.02 G/DL | ALKALINE PHOSPHATASE [1]: 374.17 u/L | ASPARTATE AMINOTRANSFERASE [1]: 83.5 u/L | BLOOD UREA NITROGEN [1]: 14.5 mg/dL | CARBON DIOXIDE [1]: 30 mmol/L | CHLORIDE [1]: 100.5 MEQ/L | CHOLESTEROL [1]: 71.33 mg/dL | CREATINE PHOSPHOKINASE [1]: 268.33 u/L | CREATININE [1]: 0.16 mg/dL | LACTATE DEHYDROGENASE [1]: 81.17 u/L | LIPASE [1]: 16.67 u/L | PHOSPHORUS [1]: 10.07 mg/dL | POTASSIUM [1]: 5.03 MEQ/L | SODIUM [1]: 142.92 MEQ/L | TOTAL BILIRUBIN [1]: 0.17 mg/dL | TOTAL PROTEIN [1]: 5.63 G/DL | URIC ACID [1]: 0.5 mg/dL | ABSOLUTE BASOPHIL [2]: 0 CELLS/uL | ABSOLUTE EOSINOPHIL [2]: 37.5 CELLS/uL | ABSOLUTE LYMPHOCYTE [2]: 8049.5 CELLS/uL | ABSOLUTE MONOCYTE [2]: 82.83 CELLS/uL | ABSOLUTE SEGMENTED NEUTROPHIL [2]: 646.83 CELLS/uL | BASOPHIL [2]: 0% | EOSINOPHIL [2]: 0.5% | ERYTHROCYTE COUNT [2]: 5.36 x10E6/uL | HEMATOCRIT [2]: 33.9% | HEMOGLOBIN [2]: 13.02 G/DL | LEUKOCYTE COUNT [2]: 8.82 x10E3/uL | LYMPHOCYTE [2]: 90.17% | MEAN CORPUSCULAR HEMOGLOBIN [2]: 24.32 pg | MEAN CORPUSCULAR HEMOGLOBIN CONCENTRATION [2]: 38.42 G/DL | MONOCYTE [2]: 1.17% | NEUTROPHIL [2]: 8.17% | NUCLEATED RED BLOOD CELLS [2]: 0.17 /100WBC | PLATELET COUNT [2]: 1231.5 x10E3/uL | ALANINE AMINOTRANSFERASE [2]: 62 u/L | ALBUMIN [2]: 3.97 G/DL | ALKALINE PHOSPHATASE [2]: 303.67 u/L | ASPARTATE AMINOTRANSFERASE [2]: 84.5 u/L | BLOOD UREA NITROGEN [2]: 14.83 mg/dL | CARBON DIOXIDE [2]: 31.83 mmol/L | CHLORIDE [2]: 97 MEQ/L | CHOLESTEROL [2]: 68.83 mg/dL | CREATINE PHOSPHOKINASE [2]: 411.33 u/L | CREATININE [2]: 0.16 mg/dL | LACTATE DEHYDROGENASE [2]: 88.5 u/L | LIPASE [2]: 9.5 u/L | PHOSPHORUS [2]: 9.98 mg/dL | POTASSIUM [2]: 5.72 MEQ/L | SODIUM [2]: 141.62 MEQ/L | TOTAL BILIRUBIN [2]: 0.1 mg/dL | TOTAL PROTEIN [2]: 5.67 G/DL | URIC ACID [2]: 0.52 mg/dL | ABSOLUTE BASOPHIL [3]: 0 CELLS/uL | ABSOLUTE EOSINOPHIL [3]: 0 CELLS/uL | ABSOLUTE LYMPHOCYTE [3]: 11817.33 CELLS/uL | ABSOLUTE MONOCYTE [3]: 150.67 CELLS/uL | ABSOLUTE SEGMENTED NEUTROPHIL [3]: 1032 CELLS/uL | BASOPHIL [3]: 0% | EOSINOPHIL [3]: 0% | ERYTHROCYTE COUNT [3]: 4.98 x10E6/uL | HEMATOCRIT [3]: 32.63% | HEMOGLOBIN [3]: 12.83 G/DL | LEUKOCYTE COUNT [3]: 13 x10E3/uL | LYMPHOCYTE [3]: 91.33% | MEAN CORPUSCULAR HEMOGLOBIN [3]: 25.77 pg | MEAN CORPUSCULAR HEMOGLOBIN CONCENTRATION [3]: 39.37 G/DL | MONOCYTE [3]: 1% | NEUTROPHIL [3]: 7.67% | NUCLEATED RED BLOOD CELLS [3]: 0 /100WBC | PLATELET COUNT [3]: 1118.67 x10E3/uL | ALANINE AMINOTRANSFERASE [3]: 64.67 u/L | ALBUMIN [3]: 4 G/DL | ALKALINE PHOSPHATASE [3]: 377.67 u/L | ASPARTATE AMINOTRANSFERASE [3]: 83.67 u/L | BLOOD UREA NITROGEN [3]: 16.33 mg/dL | CARBON DIOXIDE [3]: 32.67 mmol/L | CHLORIDE [3]: 99.33 MEQ/L | CHOLESTEROL [3]: 66.33 mg/dL | CREATINE PHOSPHOKINASE [3]: 223.67 u/L | CREATININE [3]: 0.16 mg/dL | LACTATE DEHYDROGENASE [3]: 89 u/L | LIPASE [3]: 9.67 u/L | PHOSPHORUS [3]: 9.83 mg/dL | POTASSIUM [3]: 5.42 MEQ/L | SODIUM [3]: 143.77 MEQ/L | TOTAL BILIRUBIN [3]: 0.13 mg/dL | TOTAL PROTEIN [3]: 5.7 G/DL | URIC ACID [3]: 0.53 mg/dL

From ChEMBL document CHEMBL3885881, “DrugMatrix”
